Key:
[1] = test system: U 251; test: in vitro CNS cancer cell growth inhibition (NCI screen)
[2] = test system: SR; test: in vitro leukemia cell growth inhibition (NCI screen)
[3] = test system: human tumor cell lines; assay type: cell-based; conditions: for GI50: Homo sapiens, cancer cell panel, general / most cell lines, read-out: logGI50 values in the cancer cell line panel (converted)
[4] = test system: SNB-75; test: in vitro CNS cancer cell growth inhibition (NCI screen)
[5] = test system: SK-MEL-2; test: in vitro melanoma cell growth inhibition (NCI screen)
[6] = test system: NCI-H460; test: in vitro non-small cell lung cancer cell growth inhibition (NCI screen)
[7] = test system: RPMI-8226; test: in vitro leukemia cell growth inhibition (NCI screen)
[8] = test system: M14; test: in vitro melanoma cell growth inhibition (NCI screen)
[9] = test system: CCRF-CEM; test: in vitro leukemia cell growth inhibition (NCI screen)
[10] = test system: SK-MEL-28; test: in vitro melanoma cell growth inhibition (NCI screen)
[11] = test system: NCI-H522; test: in vitro non-small cell lung cancer cell growth inhibition (NCI screen)
[12] = test system: LXFL 529; test: as above
[13] = test system: HL-60(TB); test: in vitro leukemia cell growth inhibition (NCI screen)
[14] = test system: M19-MEL; test: in vitro melanoma cell growth inhibition (NCI screen)
[15] = test system: IGROV1; test: in vitro ovarian cancer cell growth inhibition (NCI screen)
[16] = test system: HOP-18; test: in vitro non-small cell lung cancer cell growth inhibition (NCI screen)
[17] = test system: NCI-H23; test: as above
[18] = test system: HCT-116; test: in vitro colon cancer cell growth inhibition (NCI screen)
[19] = test system: MOLT-4; test: in vitro leukemia cell growth inhibition (NCI screen)
[20] = test system: SF-539; test: in vitro CNS cancer cell growth inhibition (NCI screen)
[21] = test system: UACC-62; test: in vitro melanoma cell growth inhibition (NCI screen)
[22] = test system: OVCAR-4; test: in vitro ovarian cancer cell growth inhibition (NCI screen); conditions: OVACR-4
[23] = test system: K-562; test: in vitro leukemia cell growth inhibition (NCI screen)
[24] = test system: KM 12; test: in vitro colon cancer cell growth inhibition (NCI screen)
[25] = test system: HOP-92; test: in vitro non-small cell lung cancer cell growth inhibition (NCI screen)
[26] = test system: MCF-7; test: in vitro breast cancer cell growth inhibition (NCI screen)
[27] = test system: OVCAR-3; test: in vitro ovarian cancer cell growth inhibition (NCI screen)
[28] = test system: MDA-MB-435; test: in vitro breast cancer cell growth inhibition (NCI screen)
[29] = test system: SW 620; test: in vitro colon cancer cell growth inhibition (NCI screen)
[30] = test system: UACC-257; test: in vitro melanoma cell growth inhibition (NCI screen)
[31] = test system: LOX1MVI; test: as above
[32] = test system: SNB-19; test: in vitro CNS cancer cell growth inhibition (NCI screen)
[33] = test system: SK-MEL-5; test: in vitro melanoma cell growth inhibition (NCI screen)
[34] = test system: COLO-205; test: in vitro colon cancer cell growth inhibition (NCI screen)
[35] = test system: HCT-15; test: as above
[36] = test system: MDA-N; test: in vitro breast cancer cell growth inhibition (NCI screen)
[37] = test system: DLD-1; test: in vitro colon cancer cell growth inhibition (NCI screen)
[38] = test system: KM 20L2; test: as above
[39] = test system: RXF-393; test: in vitro renal cancer cell growth inhibition (NCI screen)
[40] = test system: TK-10; test: as above
[41] = test system: HT 29; test: in vitro colon cancer cell growth inhibition (NCI screen)
[42] = test system: HOP-62; test: in vitro non-small cell lung cancer cell growth inhibition (NCI screen)
[43] = test system: SF-268; test: in vitro CNS cancer cell growth inhibition (NCI screen)
[44] = test system: OVCAR-8; test: in vitro ovarian cancer cell growth inhibition (NCI screen)
[45] = test system: OVCAR-5; test: as above
[46] = test system: MALME-3M; test: in vitro melanoma cell growth inhibition (NCI screen)

SMILES	cytotoxicity log GI50 [1]	GI50 [3]	cytotoxicity log GI50 [4]	cytotoxicity log GI50 [5]	cytotoxicity log GI50 [6]	cytotoxicity log GI50 [8]	cytotoxicity log GI50 [9]	cytotoxicity log GI50 [10]	cytotoxicity log GI50 [11]	cytotoxicity log GI50 [12]	cytotoxicity log GI50 [13]	cytotoxicity log GI50 [14]	cytotoxicity log GI50 [15]	cytotoxicity log GI50 [17]	cytotoxicity log GI50 [20]	cytotoxicity log GI50 [21]	cytotoxicity log GI50 [22]	cytotoxicity log GI50 [25]	cytotoxicity log GI50 [27]	cytotoxicity log GI50 [32]	other results
O=C(Cc1ccccc1F)NC1=C(Cl)C(=O)c2ccccc2C1=O [Compound 2i, 2-(2-Fluorophenyl)acetamido-3-chloro-1,4-naphthoguinone]	-6.48 M	0.0251 to 2.51 µM	-6.33 M	-6.21 M	-6.15 M	-6.29 M	-6.54 M	-6.34 M	-6.67 M	-6.40 M	-6.55 M	-6.36 M	-6.17 M	-6.25 M	-6.62 M	-6.48 M	-6.22 M	–	–	–	cytotoxicity log GI50 [2]: -6.32 M; cytotoxicity log GI50 [7]: -6.44 M; cytotoxicity log GI50 [16]: -6.18 M; cytotoxicity log GI50 [18]: -6.37 M; cytotoxicity log GI50 [19]: -6.60 M; cytotoxicity log GI50 [23]: -6.53 M; cytotoxicity log GI50 [24]: -6.29 M
COC(=O)CCC(=O)NC1=C(NCc2ccccc2)C(=O)c2ccccc2C1=O [Compound 55]	–	–	–	-4.73 M	-4.74 M	-4.73 M	–	–	-4.72 M	–	-4.66 M	–	-4.75 M	-4.67 M	-4.70 M	-4.76 M	-4.73 M	-4.80 M	-5.40 M	-4.66 M	cytotoxicity log GI50 [26]: -4.76 M; cytotoxicity log GI50 [28]: -4.72 M; cytotoxicity log GI50 [29]: -4.70 M; cytotoxicity log GI50 [30]: -4.78 M; cytotoxicity log GI50 [31]: -4.66 M; cytotoxicity log GI50 [33]: -4.92 M; cytotoxicity log GI50 [34]: -4.69 M; cytotoxicity log GI50 [35]: -4.77 M; cytotoxicity log GI50 [36]: -4.79 M
O=C1c2ccccc2C(=O)c2[nH]c(Cc3ccccc3F)nc21 [Compound 4b]	-5.10 M	–	–	–	-4.47 M	–	–	–	-4.67 M	-4.50 M	-4.45 M	–	–	-4.56 M	-4.51 M	–	-4.55 M	–	-4.84 M	-4.42 M	cytotoxicity log GI50 [29]: -4.42 M; cytotoxicity log GI50 [37]: -4.79 M; cytotoxicity log GI50 [38]: -4.47 M; cytotoxicity log GI50 [39]: -4.69 M; cytotoxicity log GI50 [34]: -4.47 M; cytotoxicity log GI50 [40]: -4.53 M; cytotoxicity log GI50 [41]: -4.49 M
NC1=C(NC(=O)Cc2ccc(F)cc2)C(=O)c2ccccc2C1=O [Compound 3c]	-5.09 M	–	-4.49 M	–	–	–	-4.55 M	–	-4.79 M	–	-4.59 M	-5.16 M	-4.71 M	-4.87 M	–	–	–	-4.48 M	-4.88 M	-4.63 M	cytotoxicity against tumor cells (in words) ([3]; cancer cell line panel): inactive against all representative cancer cell lines; cytotoxicity log GI50 [37]: -4.95 M; cytotoxicity log GI50 [39]: -4.68 M; cytotoxicity log GI50 [40]: -4.57 M; cytotoxicity log GI50 [42]: -4.56 M; cytotoxicity log GI50 [43]: -4.54 M; cytotoxicity log GI50 [44]: -4.47 M
COC(=O)CCC(=O)NC1=C(Nc2ccccc2)C(=O)c2ccccc2C1=O [Compound 54]	–	–	–	-5.41 M	–	-5.71 M	–	-5.59 M	–	–	-5.46 M	–	–	–	-5.11 M	-5.75 M	–	–	-5.52 M	–	cytotoxicity log GI50 [26]: -5.75 M; cytotoxicity log GI50 [28]: -5.67 M; cytotoxicity log GI50 [45]: -5.41 M; cytotoxicity log GI50 [30]: -5.56 M; cytotoxicity log GI50 [46]: -5.76 M; cytotoxicity log GI50 [36]: -5.69 M
CCn1c(-c2ccc(OC)cc2)nc2c1C(=O)c1ccccc1C2=O [Compound 27]	–	~10 µM	–	–	–	–	–	–	–	–	–	–	–	-4.21 M	–	–	–	–	–	–	cytotoxicity log GI50 [42]: -4.22 M

— patent publication US5789431A, “Naphthoquinone antitumor compound and method” (The University of North Carolina at Chapel Hill, priority 1996, dated 1998)
